Test results published in article PMC8122087 (Cell, 2021).
pEC50: −log10 of the molar value. Entries after “also recorded” stand apart in the source; their conditions may differ. Structures can show the parent of a compound that is named as a salt. Where two headings read alike, the source gives them in different places.

How the values were obtained:
head-twitch response = assay: Head-twitch response; assay type: in vivo, mouse
[1] = target: T1, psychLight2 (PSYLI2 cells) (Homo sapiens, UniProt P28223, DEL264-312/E264Q/I181A/I315S/INS316[…]/S314L); assay type: cell-based
T1 sequence (P28223 1-471 with tags or gaps with the stated changes): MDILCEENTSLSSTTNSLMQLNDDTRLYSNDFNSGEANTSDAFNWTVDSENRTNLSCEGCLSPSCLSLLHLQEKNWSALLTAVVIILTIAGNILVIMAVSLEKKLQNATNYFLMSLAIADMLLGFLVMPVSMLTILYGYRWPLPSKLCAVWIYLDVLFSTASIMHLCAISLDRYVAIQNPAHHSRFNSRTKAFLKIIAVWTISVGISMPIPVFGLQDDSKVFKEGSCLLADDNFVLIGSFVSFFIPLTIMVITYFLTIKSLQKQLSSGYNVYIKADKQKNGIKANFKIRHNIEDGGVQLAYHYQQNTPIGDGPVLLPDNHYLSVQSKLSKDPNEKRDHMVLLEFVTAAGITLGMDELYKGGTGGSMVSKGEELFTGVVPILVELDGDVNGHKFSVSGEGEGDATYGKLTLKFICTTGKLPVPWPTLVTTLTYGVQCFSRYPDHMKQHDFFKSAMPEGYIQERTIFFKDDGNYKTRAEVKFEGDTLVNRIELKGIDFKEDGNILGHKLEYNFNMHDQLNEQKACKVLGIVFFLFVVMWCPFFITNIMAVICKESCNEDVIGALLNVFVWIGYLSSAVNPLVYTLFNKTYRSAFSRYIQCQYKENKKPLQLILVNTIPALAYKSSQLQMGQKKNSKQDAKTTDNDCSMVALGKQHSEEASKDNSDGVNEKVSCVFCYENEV

[2] = target: psychLight2 (HEK293T cell line stably expressing psychLight2, PSYLI2) (Homo sapiens, UniProt P28223, DEL264-312/E264Q/I181A/I315S/INS316[…]/S314L); assay: PSYLI2 high-content imaging assay, agonist mode; assay type: cell-based
psychLight2 [3] = assay type: cell-based, mouse
[4] = target: psychLight1 (human 5-HT2AR-based fluorescent sensor) (Homo sapiens, UniProt P28223, DEL264-312/E264Q/I181A/I315S/INS316[…]/S314L); assay type: cell-based
psychLight1 (human 5-HT2AR-based fluorescent sensor), sequence (P28223 1-471 with tags or gaps with the stated changes): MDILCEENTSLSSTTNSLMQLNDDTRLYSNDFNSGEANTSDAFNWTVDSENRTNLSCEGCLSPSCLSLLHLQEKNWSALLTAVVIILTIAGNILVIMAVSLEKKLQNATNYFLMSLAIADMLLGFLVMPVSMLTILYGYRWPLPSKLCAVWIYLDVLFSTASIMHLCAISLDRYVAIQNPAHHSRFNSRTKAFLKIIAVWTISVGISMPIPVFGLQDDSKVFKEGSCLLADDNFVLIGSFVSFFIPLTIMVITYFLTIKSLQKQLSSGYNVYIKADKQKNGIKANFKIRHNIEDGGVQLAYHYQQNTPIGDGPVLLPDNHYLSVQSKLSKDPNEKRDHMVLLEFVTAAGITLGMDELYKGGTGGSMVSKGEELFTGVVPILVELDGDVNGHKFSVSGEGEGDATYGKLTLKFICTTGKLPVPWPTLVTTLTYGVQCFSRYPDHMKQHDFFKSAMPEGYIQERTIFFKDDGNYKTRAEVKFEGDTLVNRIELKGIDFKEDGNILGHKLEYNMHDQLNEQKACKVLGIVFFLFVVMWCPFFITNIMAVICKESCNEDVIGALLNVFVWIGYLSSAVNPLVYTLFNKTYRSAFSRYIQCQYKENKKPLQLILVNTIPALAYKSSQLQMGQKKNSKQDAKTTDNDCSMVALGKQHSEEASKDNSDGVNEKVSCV

psychLight2 [5] = target: psychLight2 (Homo sapiens, UniProt P28223, DEL264-312/E264Q/I181A/I315S/INS316[…]/S314L); conditions: mouse
C57BL/6J mice = assay: Forced swim test; assay type: in vivo, mouse
[6] = system: cultured rat embryonic cortical neurons; assay: Dendritogenesis in cultured rat embryonic cortical neurons; assay type: cell-based; conditions: Sholl analysis, Nmax
locomotion = assay: Locomotion assay; assay type: in vivo, mouse; conditions: C57BL/6J mice, i.p., n = 4 mice
[7] = system: VMAT2 heterozygous (VMAT2-HET) and WT mice; assay: Sucrose preference test; assay type: in vivo, mouse; conditions: 15 mg/kg i.p., single administration
[8] = target: T1, psychLight2 (PSYLI2 cells); assay type: cell-based; remark: listed apart in the source
[9] = system: endogenous 5-HT release (psychLight2 response); set-up: species or system mouse; conditions: electrical stimulation, incubation with 50 μM
[10] = C57BL/6J mice, i.p., dose-response, n = 4 mice
[11] = 10 μM compound treatment (Fig. 4C)

Structure (SMILES): CN(C)CCc1c[nH]c2ccc(Br)cc12 [5-Br-DMT, 5-bromo-N,N-dimethyltryptamine]
- head-twitch response (head-twitch response; [10]): failed to induce HTRs at any dose
- ligand score [1]: negative

Structure (SMILES): CN(C)CCc1c[nH]c2ccc(Cl)cc12 [5-Cl-DMT, 5-chloro-N,N-dimethyltryptamine]
- head-twitch response (head-twitch response; [10]): produced robust HTRs
- ligand score [1]: positive

Structure (SMILES): CN(C)CCc1c[nH]c2ccc(F)cc12 [5-F-DMT, 5-flouo-N,N-dimethyltryptamine]
- head-twitch response (head-twitch response; mouse, in vivo, ip): produced robust HTRs
- ligand score [1]: positive

Structure (SMILES): NCCc1c[nH]c2ccc(O)cc12 [5-HT, serotonin]
- PSYLI2 fluorescence ΔF/F [2]: 46.3 ± 1.4%
- PSYLI2 response [2]: 44.8 ± 0.8%
- psychLight2 fluorescence response (ΔF/F) [2]: 38.2 ± 2.4%
- ΔpL2/tdT (psychLight2 [3]): 111.1 ± 1.8%
- psychLight1 fluorescence response (ΔF/F) [4]: 77.3 ± 2.4%

Structure (SMILES): COc1ccc2[nH]cc(CCN(C)C)c2c1 [5-MeO-DMT, 5-methoxy-N,N-dimethyltryptamine]
- psychLight2 fluorescence response (ΔF/F) [2]: 24.1 ± 4.6%
- psychLight2 fluorescence in vivo (psychLight2 [5]): sharp increase in fluorescence
- head-twitch response during fiber photometry (head-twitch response; 50 mg/kg, i.p., within 1 min of administration, n = 3 animals): concomitant increase in HTR
- Emax [4]: 48.4%
- psychLight1 fluorescence response (ΔF/F) [4]: 48.4 ± 3.1%

Structure (SMILES): COc1ccc2c(CCN(C)C)c[nH]c2c1 [6-MeO-DMT, 6-methoxy-N,N-dimethyltryptamine]
- psychLight2 fluorescence response (ΔF/F) ([2]; 10 μM, high content imager (Suppl. Fig. 3C)): −3.0 ± 2.7%
- competition with / block of 5-HT-induced activation of psychLight [4]: can compete off 5-HT resulting in a reduction in psychLight fluorescence; also recorded: capable of binding to the receptor despite lacking efficacy
- psychLight1 fluorescence response (ΔF/F) ([4]; 10 μM, confocal microscope, n = 3): −1.1 ± 4.6%

Structure (SMILES): COc1ccc2c(ccn2C[C@@H](C)N(C)C)c1 [AAZ-A-154]
- immobility in the forced swim test (C57BL/6J mice; 20 mg/kg i.p., single administration, n = 12): decreased immobility
- onset and duration of antidepressant-like effects in FST (C57BL/6J mice; mouse, in vivo): both rapid (30 min) and long-lasting (1 week) antidepressant-like effects
- dendritic arbor complexity [6]: increases dendritic arbor complexity to a comparable extent as the fast-acting antidepressant ketamine
- head-twitch response (head-twitch response; [10]): failed to produce any head-twitches, even up to doses as high as 100 mg/kg
- locomotion (locomotion): only decreases locomotion at a very high dose (100 mg/kg)
- sucrose preference in WT mice [7]: did not modify sucrose preference in the WT animals
- sucrose preference in VMAT2-HET mice ([7]; 1% sucrose): exhibited a sucrose preference that was indistinguishable from WT controls
- persistence of anti-anhedonic effect ([7]; VMAT2-HET mice): at least 12 days

Structure (SMILES): CN(C)CCc1c[nH]c2ccc(O)cc12 [BUFO, N,N-dimethylserotonin]
- PSYLI2 fluorescence ΔF/F [2, 11]: 22.3 ± 2.8%

Structure (SMILES): CN(C)CCc1c[nH]c2ccccc12 [DMT, N,N-dimethyltrytamine]
- Emax [4]: 12.4%
- pEC50 ([4]; read-out: half maximal effective concentration (EC50)): 6.20

Structure (SMILES): CNCCc1c[nH]c2ccc(O)cc12 [N-5-HT, N-methylserotonin]
- PSYLI2 fluorescence ΔF/F [2, 11]: 24.6 ± 1.7%

Structure (SMILES): CP(C)C.F[P-](F)(F)(F)(F)F.F[P-](F)(F)(F)(F)F.NCCc1c[nH]c2ccc(O)cc12.[Ru+2].c1ccc(-c2ccccn2)nc1.c1ccc(-c2ccccn2)nc1 [RuBi–5-HT]
- Tauoff (psychLight2 [3]): 5.4 ± 0.9 ms
- peak ΔpL2/tdT normalized to baseline (psychLight2 [3]): 111.2 ± 0.7%

Structure (SMILES): CN1CCc2cccc3c2[C@H]1Cc1ccc(O)c(O)c1-3 [apomorphine, R-(−)-apomorphine hydrochloride hemihydrate]
- Schild regression analysis (pA2) [8]: potent psychLight competitive antagonists

Structure (SMILES): CN(C)CCC[C@@]1(c2ccc(F)cc2)OCc2cc(C#N)ccc21 [escitalopram]
- amplitude of the psychLight2 response ΔF/F [9]: 18.4 ± 4.3%

Structure (SMILES): O=C(c1ccc(F)cc1)C1CCN(CCn2c(=O)[nH]c3ccccc3c2=O)CC1 [ketanserin]
- PSYLI2 response [2]: −12.7 ± 0.5%
- psychLight2 fluorescence response (ΔF/F) [2]: −3.5 ± 1.6%
- psychLight2 fluorescence in vivo (psychLight2 [5]): decreased
- competition with / block of 5-HT-induced activation of psychLight [4]: able to block 5-HT-induced activation of psychLight
- effect on psychLight1 fluorescence [4]: either had minimal effect on psychLight1 fluorescence or slightly quenched the sensor
- psychLight1 fluorescence response (ΔF/F) [4]: −1.7 ± 0.3%

Structure (SMILES): c1ccc(C2(N3CCCCC3)CCCCC2)cc1 [phencyclidine]
- ligand score [1]: ~0

Structure (SMILES): COC(=O)[C@@H]1C[C@H](OC(C)=O)C(=O)[C@H]2[C@@]1(C)CC[C@H]1C(=O)O[C@H](c3ccoc3)C[C@]21C [salvinorin A]
- ligand score [1]: ~0

Structure (SMILES): NCCc1c[nH]c2ccccc12 [tryptamine]
- PSYLI2 fluorescence ΔF/F [2]: produces a robust response
